Values joined by “and” are separate entries in the source; they are usually repeats but may differ in a detail not shown here. Equal entries are not always repeated. After the bases stand the sugars from the 5' end (letter, count) and the backbone: PS all phosphorothioate, else s phosphorothioate and o phosphodiester by linkage. Methylation of C is not given here. e = 2'-O-(2-methoxyethyl) (MOE); d = 2'-deoxy (DNA)
Biological target: DGAT2
Conditions: ASO

Sequence: ATCAGCTATAGAATCAGACA (sugars e5 d10 e5, PS)
- target mRNA inhibition (HepG2, 2.5 µM): 16%
- target mRNA inhibition (HepG2, 10 µM): 75%

Sequence: CAGGGCCTCCATGTACATGG (sugars e5 d10 e5, PS)
- target mRNA inhibition (HepG2, 0.12 µM): 37%

Sequence: TTTGGATAGTCGATTTACCA (sugars e5 d10 e5, PS)
- target mRNA inhibition (HepG2, 0.12 µM): 41%

Sequence: GATAGCATTGCCACTCCCAT (sugars e5 d10 e5, PS)
- target mRNA inhibition (HepG2, 0.12 µM): 66%

Sequence: TCACCTGCTTGTACACTTCA (sugars e5 d10 e5, PS)
- target mRNA inhibition (HepG2, 0.12 µM): 40%

Sequence: TAAGGAAAACTTAGGCATGC (sugars e5 d10 e5, PS)
- target mRNA inhibition (HepG2, 2.5 µM): 75%
- target mRNA inhibition (HepG2, 10 µM): 69%

Sequence: TTAAGCTTTGTGACCTTGGG (sugars e5 d10 e5, PS)
- target mRNA inhibition (HepG2, 0.12 µM): 67%

Sequence: GCACCTGTTACTACATGTCT (sugars e5 d10 e5, PS)
- target mRNA inhibition (HepG2, 2.5 µM): 87% and 78%
- target mRNA inhibition (HepG2, 10 µM): 92% and 84%

Sequence: CACTCTGTGATGCTCTGGAG (sugars e5 d10 e5, PS)
- target mRNA inhibition (HepG2, 2.5 µM): 60%
- target mRNA inhibition (HepG2, 10 µM): 84%

Sequence: GTCCTCCTTAGCTTTAATCC (sugars e5 d10 e5, PS)
- target mRNA inhibition (HepG2, 2.5 µM): 62%
- target mRNA inhibition (HepG2, 10 µM): 85%

Sequence: AGGTAGAGTTCTATTGCTTC (sugars e5 d10 e5, PS)
- target mRNA inhibition (HepG2, 2.5 µM): 81%
- target mRNA inhibition (HepG2, 10 µM): 88% and 92%

Sequence: TATTTGAAGATAAAGTCAGA (sugars e5 d10 e5, PS)
- target mRNA inhibition (HepG2, 0.12 µM): 0%

Sequence: AGAAAAAGCAACCAAAGCAC (sugars e5 d10 e5, PS)
- target mRNA inhibition (HepG2, 2.5 µM): 19%
- target mRNA inhibition (HepG2, 10 µM): 82%

Sequence: GCATGCTTCCTCCCACTTCA (sugars e5 d10 e5, PS)
- target mRNA inhibition (HepG2, 2.5 µM): 84%
- target mRNA inhibition (HepG2, 10 µM): 76%

Sequence: CTCAGAGACTCAGCCGCACC (sugars e3 d14 e3, PS)
- target mRNA inhibition (HepG2, 0.12 µM): 70%

Sequence: CATCAGGTACTCCCTCAACA (sugars e5 d10 e5, PS)
- target mRNA inhibition (HepG2, 0.12 µM): 35%

Sequence: AATGCCAATGCCTAGGTCAC (sugars e5 d10 e5, PS)
- target mRNA inhibition (HepG2, 2.5 µM): 72%
- target mRNA inhibition (HepG2, 10 µM): 90%

Sequence: TCTTTGCTTGCCAGGTGAGC (sugars e5 d10 e5, PS)
- target mRNA inhibition (HepG2, 2.5 µM): 67%
- target mRNA inhibition (HepG2, 10 µM): 71%

Sequence: GATGGCAACCTAAGGAGTGA (sugars e5 d10 e5, PS)
- target mRNA inhibition (HepG2, 0.12 µM): 37%

Sequence: GTCAGCAGGTTGTGTGTCTT (sugars e3 d14 e3, PS)
- target mRNA inhibition (HepG2, 0.12 µM): 61%

Sequence: GGACAGGAGGGTCACACACA (sugars e5 d10 e5, PS)
- target mRNA inhibition (HepG2, 0.12 µM): 45%

Sequence: GGTGGTCAGCAGGTTGTGTG (sugars e5 d10 e5, PS)
- target mRNA inhibition (HepG2, 0.12 µM): 29%

Sequence: ATCCTGCCAGAGTTATCCTC (sugars e5 d10 e5, PS)
- target mRNA inhibition (HepG2, 2.5 µM): 86%
- target mRNA inhibition (HepG2, 10 µM): 77%

Sequence: ACAGCAGCAGTCTAATCCAT (sugars e5 d10 e5, PS)
- target mRNA inhibition (HepG2, 2.5 µM): 57%
- target mRNA inhibition (HepG2, 10 µM): 87%

Sequence: CAGAAGAGCAAAGGCTTGCT (sugars e5 d10 e5, PS)
- target mRNA inhibition (HepG2, 2.5 µM): 50%
- target mRNA inhibition (HepG2, 10 µM): 94%

Sequence: AAAAACATGACAGCCAGGGT (sugars e5 d10 e5, PS)
- target mRNA inhibition (HepG2, 0.12 µM): 31%

Sequence: CTCACCCCTGTACTCAGCCC (sugars e5 d10 e5, PS)
- target mRNA inhibition (HepG2, 2.5 µM): 72%
- target mRNA inhibition (HepG2, 10 µM): 88%

Sequence: TTGCAATGTTGCCATCATAC (sugars e5 d10 e5, PS)
- target mRNA inhibition (HepG2, 10 µM): 96% and 94%

Sequence: TGTGTGACCTTGGGCAAGTT (sugars e5 d10 e5, PS)
- target mRNA inhibition (HepG2, 2.5 µM): 61% and 57%
- target mRNA inhibition (HepG2, 10 µM): 78% and 88%

Sequence: TTCGGACCCACTGTGACCTC (sugars e2 d13 e5, PS)
- target mRNA inhibition (HepG2, 0.12 µM): 71%

Sequence: GAGGCCAAGGACAGAGGTTC (sugars e5 d10 e5, PS)
- target mRNA inhibition (HepG2, 2.5 µM): 66%
- target mRNA inhibition (HepG2, 10 µM): 81%

Sequence: GCTCTCATTTCTTATCTTCA (sugars e5 d10 e5, PS)
- target mRNA inhibition (HepG2, 2.5 µM): 82% and 80%
- target mRNA inhibition (HepG2, 10 µM): 95% and 93%

Sequence: TCTCCTCTGCTTCTTGGGCA (sugars e5 d10 e5, PS)
- target mRNA inhibition (HepG2, 2.5 µM): 69% and 67%
- target mRNA inhibition (HepG2, 10 µM): 85% and 82%

Sequence: TCTTGCCAGGCATGGAGCTC (sugars e5 d10 e5, PS)
- target mRNA inhibition (HepG2, 0.12 µM): 47%

Sequence: CCACTCCCATTCTTTGAAAG (sugars e5 d10 e5, PS)
- target mRNA inhibition (HepG2, 0.12 µM): 34%

Sequence: GTAAGGGTATTCTGCTCATA (sugars e5 d10 e5, PS)
- target mRNA inhibition (HepG2, 10 µM): 86% and 95%

Sequence: AAGGCCAGGCCCCTTCTGAA (sugars e5 d10 e5, PS)
- target mRNA inhibition (HepG2, 0.12 µM): 32%

Sequence: CACAGTTAAAGTGTGGTACA (sugars e5 d10 e5, PS)
- target mRNA inhibition (HepG2, 2.5 µM): 52%
- target mRNA inhibition (HepG2, 10 µM): 88%

Sequence: CTGGACCCATCGGCCCCAGG (sugars e5 d10 e5, PS)
- target mRNA inhibition (HepG2, 0.12 µM): 41%

Sequence: AAACTTAGGCATGCTTCCTC (sugars e5 d10 e5, PS)
- target mRNA inhibition (HepG2, 2.5 µM): 84%
- target mRNA inhibition (HepG2, 10 µM): 56%

Sequence: GTCAGCAGGTTGTGTGTCTT (sugars e2 d13 e5, PS)
- target mRNA inhibition (HepG2, 0.12 µM): 58%

Sequence: GGTGAATAGCTATGTCTAAA (sugars e5 d10 e5, PS)
- target mRNA inhibition (HepG2, 2.5 µM): 70% and 55%
- target mRNA inhibition (HepG2, 10 µM): 91% and 85%

Sequence: CGCGATTCACTGAGGACCTC (sugars e5 d10 e5, PS)
- target mRNA inhibition (HepG2, 2.5 µM): 73% and 74%
- target mRNA inhibition (HepG2, 10 µM): 83% and 93%

Sequence: AGCCTGCCACAGGGCCCTTT (sugars e5 d10 e5, PS)
- target mRNA inhibition (HepG2, 0.12 µM): 37%

Sequence: TGATAGCATTGCCACTCCCA (sugars e3 d14 e3, PS)
- target mRNA inhibition (HepG2, 0.12 µM): 66%

Sequence: CATCACATGCTTATCCTTGA (sugars e5 d10 e5, PS)
- target mRNA inhibition (HepG2, 0.12 µM): 41%

Sequence: TAAGGGTATTCTGCTCATAA (sugars e5 d10 e5, PS)
- target mRNA inhibition (HepG2, 2.5 µM): 63%
- target mRNA inhibition (HepG2, 10 µM): 93%

Sequence: AGGCAAAGTAACATACCTGC (sugars e5 d10 e5, PS)
- target mRNA inhibition (HepG2, 2.5 µM): 71% and 74%
- target mRNA inhibition (HepG2, 10 µM): 94% and 91%

Sequence: GCAGGACCCCGGAGTAGGCG (sugars e5 d10 e5, PS)
- target mRNA inhibition (HepG2, 0.12 µM): 58%

Sequence: TGAGGCCAAGGACAGAGGTT (sugars e5 d10 e5, PS)
- target mRNA inhibition (HepG2, 2.5 µM): 59%
- target mRNA inhibition (HepG2, 10 µM): 85%

Sequence: TAGCATTGCCACTCCCATTC (sugars e2 d13 e5, PS)
- target mRNA inhibition (HepG2, 0.12 µM): 60%

Sequence: GCCAGGTGCTCTCATTTCTT (sugars e5 d10 e5, PS)
- target mRNA inhibition (HepG2, 2.5 µM): 63%
- target mRNA inhibition (HepG2, 10 µM): 91%

Sequence: CCTAAAGGTGAAGACTGGCT (sugars e5 d10 e5, PS)
- target mRNA inhibition (HepG2, 2.5 µM): 77% and 79%
- target mRNA inhibition (HepG2, 10 µM): 93% and 94%

Sequence: GGTGCTCTCATTTCTTATCT (sugars e5 d10 e5, PS)
- target mRNA inhibition (HepG2, 2.5 µM): 56% and 59%
- target mRNA inhibition (HepG2, 10 µM): 82% and 92%

Sequence: TGTGTGTCTTCACCAGCTGG (sugars e5 d10 e5, PS)
- target mRNA inhibition (HepG2, 0.12 µM): 55%
- target mRNA inhibition (HepG2, 2.5 µM): 28%
- target mRNA inhibition (HepG2, 10 µM): 73%
- target mRNA inhibition (HepG2, 20 µM): 94%

Sequence: CCACTGTTGCTGAGCTCATG (sugars e5 d10 e5, PS)
- target mRNA inhibition (HepG2, 2.5 µM): 68%
- target mRNA inhibition (HepG2, 10 µM): 88%

Sequence: GCTTCACCAGGGCCTCCATG (sugars e5 d10 e5, PS)
- target mRNA inhibition (HepG2, 0.12 µM): 31%
- target mRNA inhibition (HepG2, 2.5 µM): 34%
- target mRNA inhibition (HepG2, 10 µM): 57%
- target mRNA inhibition (HepG2, 20 µM): 80%

Sequence: AGCTCTCAAGTCTTCCTCCT (sugars e5 d10 e5, PS)
- target mRNA inhibition (HepG2, 2.5 µM): 62% and 76%
- target mRNA inhibition (HepG2, 10 µM): 89% and 92%

Sequence: TCTCGAATATCCCTAATAAC (sugars e5 d10 e5, PS)
- target mRNA inhibition (HepG2, 2.5 µM): 34%
- target mRNA inhibition (HepG2, 10 µM): 87%

Sequence: TCAGCCTAGAGGCCCTGGAC (sugars e5 d10 e5, PS)
- target mRNA inhibition (HepG2, 0.12 µM): 26%

Sequence: AGGGTTCATGGATCCCC (sugars e3 d10 e4, PS)
- target mRNA inhibition (HepG2, 2.5 µM): 46%
- target mRNA inhibition (HepG2, 10 µM): 76%

Sequence: GTTGCCATCATACTAGACTA (sugars e5 d10 e5, PS)
- target mRNA inhibition (HepG2, 2.5 µM): 65%
- target mRNA inhibition (HepG2, 10 µM): 85%

Sequence: GCGCCACACAGCCCAGTTTC (sugars e5 d10 e5, PS)
- target mRNA inhibition (HepG2, 0.12 µM): 31%
